# Columns and labels:
# IL-1 = IL-1 (IL-1β) level of LPS-cultured PBMCs (BD CBA Human Inflammation Kit) from healthy men after 6 weeks of αT supplementation; format: in vivo; conditions: for PMBC cytokine levels IL-1 mean: 6-weeks
# Excerpt: (§1) Healthy middle-aged male volunteers (mean age 52.7±10 years; median years) were given dietary supplements of either […] (moderate dose), or […] (high dose) RRR-α tocopherol per day for six weeks. Subject numbers in each group were 57 and 102 respectively. All research participants gave written informed consent to take part. The study protocol was approved by the Southampton University Hospitals Trust Clinical Ethics Committee authorized the research protocol. Study participants continued with their normal diets while receiving the supplements. Subjects continued with their normal daily activities while on the study but visited the Wellcome Trust Clinical Research Facility at Southampton University Hospital Trust, after an overnight fast, at the beginning and end of the supplementation period. At the visit weight, height, and waist and hip circumference were measured, and blood samples taken for the measurement of cytokines.
# (§2) Alpha-tocopherol in plasma was determined using fluorimetry according to methods described elsewhere (11). The limit of detection for αT was 7.2 pmol/L. Peripheral blood mononuclear cells (PBMCs) were prepared from heparinized whole blood samples using Leucosep sterile centrifuge tubes (Greiner Bio-one, Germany) and Histopaque gradient solution (Sigma-Aldrich Inc, MO, USA) and cultured in the presence of Lipopolysaccharide (LPS) (Sigma-Aldrich Inc, MO, USA) for 24h after which time the supernatants were removed and stored. Interleukin-6 (IL-6), tumor necrosis factor (TNF) and interleukin-1β (IL-1β) protein levels were quantitatively measured by the BD CBA Human Inflammation Kit (BD Bioscience, San Jose, Calif., USA). The operations were performed according to the manufacturer's instructions. The intensity of the fluorescence signal was acquired on a fluorescence activated cell sorter (FACS) flow cytometer (BD Becton-Dickinson), and analyzed using CBA software. The concentration range for detection using this assay is 20-5000 pg/ml for each of the proteins.
# (§3) A linear regression was carried out where the outcome variable was Log(DeltaCk+minDeltaCk) Where Ck stands for IL-1, IL-6 or TNF-alpha. And DeltaCk=Followup-Baseline serum cytokine levels, and minDelta the most negative DeltaCk (<0) observed in the population baseline value, alpha tocopherol dose group, smoking status (age+BMI) were included as covariates.
# IL-6 = IL-6 level of LPS-cultured PBMCs (BD CBA Human Inflammation Kit) from healthy men after 6 weeks of αT supplementation; format: in vivo; conditions: for PMBC cytokine levels IL-6 mean: 6-weeks
# Excerpt: as §1, §2, §3
# [1] = Fasting plasma alpha-tocopherol by fluorimetry in healthy men supplemented with αT for six weeks; format: in vivo, human; conditions: for fasting plasma αT mean: 6-weeks
# Excerpt: as §1, §2
# TNFα = TNFα level of LPS-cultured PBMCs (BD CBA Human Inflammation Kit) from healthy men after 6 weeks of αT supplementation; format: in vivo; conditions: for PMBC cytokine levels TNFα mean: 6-weeks
# Excerpt: as §1, §2, §3
# [2] = subjects who took vitamin E supplements; adjusted for age, smoking status, intake of carotene and vitamin C; cited from earlier work
molecule,measurement,setting,value
"Cc1c(C)c2c(c(C)c1O)CC[C@@](C)(CCC[C@H](C)CCC[C@H](C)CCCC(C)C)O2 [αT, RRR-α tocopherol]",PMBC cytokine levels IL-1 mean,IL-1; 75 IU/d,7.38 ng/L
same,PMBC cytokine levels IL-1 mean,IL-1; 600 IU/d,6.93 ng/L
same,change in IL1 levels by genotype,"IL-1; GG carriers at IL10-1082, 6 weeks",lower increase
same,change in IL-1 levels by genotype,"IL-1; GG genotype at GSTP1 313, 6 weeks, not significant after FDR correction",decrease
same,change in serum levels of IL-1,"IL-1; both treatment groups, 6 weeks",increase
same,change in IL1 levels by genotype,"IL-1; common genotypes at IL10-592 (CC) and IL10-819, 6 weeks",lower increase
same,PMBC cytokine levels IL-6 mean,IL-6; 75 IU/d,18.71 ng/L
same,PMBC cytokine levels IL-6 mean,IL-6; 600 IU/d,16.73 ng/L
same,change in IL-6 serum levels by genotype,"IL-6; GSTP1 313 AG and GG carriers (so in the source), 6 weeks",increase
same,change in IL-6 levels by genotype,"IL-6; SOD-28 TT versus CT and CC variants, 6 weeks, not significant after adjusting for multiple tests",lower increase
same,change in serum levels of IL-6,"IL-6; both treatment groups, 6 weeks",increase
same,change in IL-6 levels by genotype,"IL-6; variant homozygotes GSTP1 313 (GG), 6 weeks, p<0.019",decreased levels
same,fasting plasma αT mean,"[1]; 75 IU/d, n = 57 healthy males",22.6 µmol/L
same,fasting plasma αT mean,"[1]; 600 IU/d, n = 102 healthy males",31.3 µmol/L
same,change in plasma fasting levels of alpha-tocopherol,"[1]; both dose groups (75 and 600 IU/d), 6 weeks",increase
same,PMBC cytokine levels TNFα mean,TNFα; 75 IU/d,1.48 ng/L
same,PMBC cytokine levels TNFα mean,TNFα; 600 IU/d,1.31 ng/L
same,change in TNFα by genotype,"TNFα; GA genotype at TNF-238, 6 weeks, p<0.016 after correcting for multiple tests",decrease
same,change in serum levels of TNFα,"TNFα; both treatment groups, 6 weeks",increase
same,change in serum levels of TNFα by genotype,"TNFα; genotypes AG and AA for IL10-1082 SNP and GG for TNF-238 SNP, 6 weeks",increase
same,increase in TNFα after supplementation,"TNFα; low-dose group (75 IU/d), 6 weeks, p<0.011 after adjusting for age, baseline levels, smoking status and BMI",40.5%
vitamin E,reduction of major coronary heart disease,[2],30%
